Holding throughout (assay type): in vivo
The subject of experiment [1] is Alopecurus myosuroides (ALOMY). The experiment can be described thus: Example B pre-emergence herbicidal activity. As to conditions: 312 h, rate 250 g/ha, evaluated after 13 days, read-out: Pre-Emergence Activity ALOMY (100=total damage to plant; 0=no damage to plant). How it is done:
(§1) Seeds of a variety of test species were sown in standard soil in pots. After cultivation for one day (pre-emergence) or after 8 days cultivation (post-emergence) under controlled conditions in a glasshouse (at 24/16° C., day/night; 14 hours light; 65% humidity), the plants were sprayed with an aqueous spray solution derived from the formulation of the technical active ingredient in acetone/water (50:50) solution containing 0.5% Tween 20 (polyoxyethelyene sorbitan monolaurate, CAS RN 9005-64-5).
(§2) The test plants were then grown in a glasshouse under controlled conditions in a glasshouse (at 24/16° C., day/night; 14 hours light; 65% humidity) and watered twice daily. After 13 days for pre and post-emergence, the test was evaluated (100=total damage to plant; 0=no damage to plant).
(§3) Alopecurus myosuroides (ALOMY), Avena fatua (AVEFA), Setaria faberi (SETFA), Echinochloa crus-galli (ECHCG), Solanum nigrum (SOLNI) and Amaranthus retoflexus (AMARE)

For experiment [2], the system named is Echinochloa crus-galli (ECHCG). The experiment can be described thus: Example B pre-emergence herbicidal activity. As to conditions: 312 h, rate 250 g/ha, evaluated after 13 days, read-out: Pre-Emergence Activity ECHCG (100=total damage to plant; 0=no damage to plant). The protocol:
as §1, §2, §3

In experiment [3] the test system is Setaria faberi (SETFA). The experiment can be described thus: Example B pre-emergence herbicidal activity. To be noted: 312 h, rate 250 g/ha, evaluated after 13 days, read-out: Pre-Emergence Activity SETFA (100=total damage to plant; 0=no damage to plant). The protocol: as §1, §2, §3
Experiment [4] concerns Avena fatua (AVEFA). The experiment can be described thus: Example B pre-emergence herbicidal activity. As to conditions: 312 h, rate 250 g/ha, evaluated after 13 days, read-out: Pre-Emergence Activity AVEFA (100=total damage to plant; 0=no damage to plant). How it is done: as §1, §2, §3
The subject of experiment [5] is Amaranthus retoflexus (AMARE). The experiment can be described thus: Example B pre-emergence herbicidal activity. As to conditions: Amaranthus retroflexus, 312 h, rate 250 g/ha, evaluated after 13 days, read-out: Pre-Emergence Activity AMARE (100=total damage to plant; 0=no damage to plant). The protocol: as §1, §2, §3
Experiment [6] deals with Alopecurus myosuroides (ALOMY). The experiment can be described thus: Example B post-emergence herbicidal activity. To be noted: 312 h, rate 250 g/ha, evaluated after 13 days, read-out: Post-emergence activity ALOMY (100=total damage to plant; 0=no damage to plant). The gist of the method: (§4)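 Plants were sprayed 1 day after sowing (pre-emergence) or after 8 days (post-emergence) with active ingredient in acetone/water 50:50 plus 0.5% Tween 20. They were grown in a glasshouse at 24/16 °C, 14 h light and 65% humidity. Damage was scored visually 0–100 after 13 days.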

In experiment [7] the test system is Echinochloa crus-galli (ECHCG). The experiment can be described thus: Example B post-emergence herbicidal activity. To be noted: 312 h, rate 250 g/ha, evaluated after 13 days, read-out: Post-emergence activity ECHCG (100=total damage to plant; 0=no damage to plant). The gist of the method:
as §4

Experiment [8] relates to Setaria faberi (SETFA). The experiment can be described thus: Example B post-emergence herbicidal activity. As to conditions: 312 h, rate 250 g/ha, evaluated after 13 days, read-out: Post-emergence activity SETFA (100=total damage to plant; 0=no damage to plant). The gist of the method:
as §4

In experiment [9] the test system is Avena fatua (AVEFA). The experiment can be described thus: Example B post-emergence herbicidal activity. As to conditions: 312 h, rate 250 g/ha, evaluated after 13 days, read-out: Post-emergence activity AVEFA (100=total damage to plant; 0=no damage to plant). Put shortly:
as §4

In experiment [10] the test system is Amaranthus retoflexus (AMARE). The experiment can be described thus: Example B post-emergence herbicidal activity. To be noted: Amaranthus retroflexus, 312 h, rate 250 g/ha, evaluated after 13 days, read-out: Post-emergence activity AMARE (100=total damage to plant; 0=no damage to plant). The gist of the method:
as §4

Each structure is given as a SMILES string.

As for `Cc1sc(-c2ccc(OC(F)F)cc2Cl)nc1C1=C(OC(=O)C(C)(C)C)[C@@H]2CC[C@@H](C2)C1=O` [Compound P17], the pest or weed control at 250 g/ha is 80% in experiment [1]; 100% in experiment [2]; 100% with Setaria faberi (SETFA) [3]; 50% in the experiment on Avena fatua (AVEFA) [4]; 0% in [5]; 90% in experiment [6]. Moreover, the pest or weed control at 250 g/ha in [7] is 100%; with Setaria faberi (SETFA) [8], 100%; with Avena fatua (AVEFA) [9], 80%; in experiment [10] it was 0%.

As for `CCc1sc(-c2ccc(Br)cc2)nc1C1C(=O)[C@@H]2CC[C@@H](C2)C1=O` (stereo partly drawn) [Compound T28], the pest or weed control at 250 g/ha in experiment [1] was 80%; in experiment [2] it was 100%; with Setaria faberi (SETFA) [3] it was 100%; with Avena fatua (AVEFA) [4] it was 90%; in experiment [5], 0%; in experiment [6], 100%. Also, the pest or weed control at 250 g/ha in experiment [7] is 100%; with Setaria faberi (SETFA) [8] it was 100%; with Avena fatua (AVEFA) [9], 100%; in experiment [10], 0%.

Turning to `Cc1ccc(-c2nc(C3C(=O)[C@@H]4CC[C@@H](C4)C3=O)c(C)s2)cc1Cl` (stereo partly drawn) [Compound T10], the pest or weed control at 250 g/ha in experiment [1] came out at 20%; in [2], 60%; with Setaria faberi (SETFA) [3] it was 20%; in the experiment on Avena fatua (AVEFA) [4], 0%; in [5], 0%; in experiment [6], 20%. For the same molecule, the pest or weed control at 250 g/ha came out at 70% in [7], 70% with Setaria faberi (SETFA) [8], 0% in the experiment on Avena fatua (AVEFA) [9] and 0% in experiment [10].

Regarding `CCc1sc(-c2ccc(Br)cc2C)nc1C1C(=O)[C@@H]2CC[C@@H](C2)C1=O` (stereo partly drawn) [Compound T38], the pest or weed control at 250 g/ha in experiment [1] was found to be 60%; in [2] it was 70%; in the experiment on Setaria faberi (SETFA) [3], 100%; with Avena fatua (AVEFA) [4], 50%; in [5], 0%; in experiment [6] it was 100%. In addition, the pest or weed control at 250 g/ha in experiment [7] was found to be 100%; in the experiment on Setaria faberi (SETFA) [8] it was 100%; in the experiment with Avena fatua (AVEFA) [9], 100%; in experiment [10], 0%.

For `Cc1cnc(-c2ccc(Cl)cc2)nc1C1C(=O)[C@@H]2CC[C@@H](C2)C1=O` (stereo partly drawn) [Compound T88], the pest or weed control at 250 g/ha came out at 0% in experiment [1]; 60% in [2]; 80% with Setaria faberi (SETFA) [3]; 0% with Avena fatua (AVEFA) [4]; 0% in experiment [5]; 10% in experiment [6]. The pest or weed control at 250 g/ha in experiment [7] worked out at 90%; with Setaria faberi (SETFA) [8], 70%; in the experiment on Avena fatua (AVEFA) [9], 0%; in experiment [10], 0%.

As to `CCc1sc(-c2ccc(Cl)s2)nc1C1C(=O)[C@@H]2CC[C@@H](C2)C1=O` (stereo partly drawn) [Compound T36], the pest or weed control at 250 g/ha worked out at 60% in [1]; 60% in [2]; 70% with Setaria faberi (SETFA) [3]; 20% with Avena fatua (AVEFA) [4]; 0% in experiment [5]; 90% in experiment [6]. In addition, the pest or weed control at 250 g/ha in experiment [7] was 100%; in the experiment on Setaria faberi (SETFA) [8], 100%; with Avena fatua (AVEFA) [9] it was 20%; in experiment [10] it was 0%.

With `COc1ccc(-c2nc(C3C(=O)[C@@H]4CC[C@@H](C4)C3=O)c(C)s2)cc1F` (stereo partly drawn) [Compound T76], the pest or weed control at 250 g/ha was found to be 0% in [1]; 50% in experiment [2]; 70% in the experiment on Setaria faberi (SETFA) [3]; 0% with Avena fatua (AVEFA) [4]; 0% in experiment [5]; 70% in experiment [6]. Besides, the pest or weed control at 250 g/ha in [7] was 90%; in the experiment on Setaria faberi (SETFA) [8] it was 80%; in the experiment on Avena fatua (AVEFA) [9], 50%; in experiment [10] it was 0%.

With `Cc1sc(-c2ccc(OC(F)F)cc2)nc1C1C(=O)[C@@H]2CC[C@@H](C2)C1=O` (stereo partly drawn) [Compound T42], the pest or weed control at 250 g/ha in experiment [1] stood at 100%; in [2], 100%; in the experiment on Setaria faberi (SETFA) [3], 100%; in the experiment with Avena fatua (AVEFA) [4], 0%; in [5], 0%; in [6], 100%. Moreover, the pest or weed control at 250 g/ha was 100% in experiment [7], 100% in the experiment on Setaria faberi (SETFA) [8], 70% with Avena fatua (AVEFA) [9] and 0% in experiment [10].

Take `Cc1sc(-c2ccc(Cl)cc2Cl)nc1C1C(=O)[C@@H]2CC[C@@H](C2)C1=O` (stereo partly drawn) [Compound T3]: the pest or weed control at 250 g/ha in experiment [1] was 60%; in [2], 80%; in the experiment on Setaria faberi (SETFA) [3], 90%; with Avena fatua (AVEFA) [4], 0%; in [5], 0%; in experiment [6], 90%. In addition, the pest or weed control at 250 g/ha came to 100% in experiment [7], 100% with Setaria faberi (SETFA) [8], 60% in the experiment with Avena fatua (AVEFA) [9] and 0% in [10].

As for `O=C1C(c2nc(-c3ccc(Cl)cc3)sc2Cl)C(=O)[C@H]2CC[C@@H]1C2` (stereo partly drawn) [Compound T55], the pest or weed control at 250 g/ha in experiment [1] worked out at 100%; in [2] it was 100%; in the experiment with Setaria faberi (SETFA) [3], 100%; with Avena fatua (AVEFA) [4], 100%; in experiment [5], 0%; in experiment [6], 100%. For the same molecule, the pest or weed control at 250 g/ha worked out at 100% in experiment [7], 100% with Setaria faberi (SETFA) [8], 100% with Avena fatua (AVEFA) [9] and 0% in experiment [10].

Consider `Cc1sc(-c2ccc(Cl)s2)nc1C1C(=O)[C@@H]2CC[C@@H](C2)C1=O` (stereo partly drawn) [Compound T34], for which the pest or weed control at 250 g/ha turned out to be 20% in experiment [1]; 20% in experiment [2]; 20% in the experiment on Setaria faberi (SETFA) [3]; 0% in the experiment with Avena fatua (AVEFA) [4]; 0% in [5]; 70% in [6]. The pest or weed control at 250 g/ha in [7] was 80%; in the experiment on Setaria faberi (SETFA) [8], 90%; with Avena fatua (AVEFA) [9], 0%; in experiment [10], 0%.

As to `CCc1sc(COc2ccc(Cl)cc2)nc1C1C(=O)[C@@H]2CC[C@@H](C2)C1=O` (stereo partly drawn) [Compound T41], the pest or weed control at 250 g/ha amounted to 80% in experiment [1]; 100% in experiment [2]; 40% with Setaria faberi (SETFA) [3]; 0% in the experiment on Avena fatua (AVEFA) [4]; 0% in experiment [5]; 100% in experiment [6]. Further, the pest or weed control at 250 g/ha in [7] worked out at 100%; in the experiment on Setaria faberi (SETFA) [8], 100%; with Avena fatua (AVEFA) [9], 70%; in experiment [10], 0%.

For the origin of these results see patent US8598365B2, “Herbicides” (Syngenta Limited, priority 2007, dated 2013).
